Experimental data taken from PubChem BioAssay (NCI).
Where “and” joins values, the source holds several entries; their conditions need not be identical. Equal values may be shown once.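 A five-concentration, 48-hour dose response in 96-well plates underlies each endpoint, interpolated linearly between surrounding concentrations. GI50 is the concentration that inhibits growth by half. Definition used: TGI = concentration required for complete inhibition of growth.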

Experiments:
Assay in all cases: NCI-60 cell line screen, 48 h
HOP-62 NSCLC = tested on: HOP-62 NSCLC
UO-31 renal = tested on: UO-31 renal
HT29 colon = tested on: HT29 colon
A549 NSCLC = tested on: A549 NSCLC
SK-MEL-5 melanoma = tested on: SK-MEL-5 melanoma
SN12C renal = tested on: SN12C renal
SR leukemia = tested on: SR leukemia
NCI-H522 lung = tested on: NCI-H522 lung
SF-539 CNS = tested on: SF-539 CNS
UACC-257 melanoma = tested on: UACC-257 melanoma

SMILES | TGI (HOP-62 NSCLC) [µM] | TGI (UO-31 renal) | TGI (HT29 colon) | TGI (A549 NSCLC) [µM] | TGI (SK-MEL-5 melanoma) [µM] | TGI (SN12C renal) [µM] | TGI (SR leukemia) [µM] | TGI (NCI-H522 lung) [µM] | TGI (SF-539 CNS) | TGI (UACC-257 melanoma) [µM] | GI50 (HOP-62 NSCLC) | GI50 (UO-31 renal) | GI50 (HT29 colon) | GI50 (A549 NSCLC) | GI50 (SK-MEL-5 melanoma) | GI50 (SN12C renal) | GI50 (SR leukemia) | GI50 (NCI-H522 lung) | GI50 (SF-539 CNS) | GI50 (UACC-257 melanoma)
O=NNc1nc(-c2ccccn2)nc2ccccc12 | 48.1 | > 100 µM | 18.7 µM | > 100 | > 100 | > 100 | > 100 | 9.21 | > 100 µM | > 100 |  |  |  |  |  |  |  |  |  | 
OCCn1c(-c2ccncc2)c(-c2ccc(F)cc2)c2ncccc21 | > 25 | > 25 µM | > 25 µM | > 25 | > 25 | > 25 | > 25 | > 25 | > 25 µM | > 25 | > 25 µM | 12.5 µM | > 25 µM | > 25 µM | > 25 µM | > 25 µM | > 25 µM | > 25 µM | > 25 µM | > 25 µM
O=C(NCc1cccnc1)c1ccc([N+](=O)[O-])o1 | 4.79 | > 14.7 µM | 2.37 µM | 7.28 | 6.38 | 4.49 | > 32.5 | 0.602 | 3.76 µM | 5.03 | 1.3 µM | 2.83 µM | 0.825 µM | 2.54 µM | 2.18 µM | 1.19 µM | 1.24 µM | 0.141 µM | 1.12 µM | 1.13 µM
C/C(=N\NC(=O)c1ccncc1)c1ccccc1O | > 100 | 28.9 µM | > 100 µM | > 100 | 32.2 | > 100 | > 100 | > 100 | > 100 µM | > 100 | 3.82 µM | 0.973 µM | 1.6 µM | 3.86 µM | 3.6 µM | 4.79 µM | 1.8 µM | 2.82 µM | 2.78 µM | 4.14 µM
Cc1cc2c(SCc3ccccc3Cl)nc(N)nc2nc1C | > 100 | > 100 µM | > 100 µM | > 100 | > 100 | > 100 | > 100 | > 100 | > 100 µM | > 100 |  |  |  |  |  |  |  |  |  | 
CN1CCN(Cc2ccc(NC(=O)c3cncc(C#Cc4cnc5cccnn45)c3)cc2C(F)(F)F)CC1 | 5.08 | 3.78 µM | 5.1 µM | 5.05 | 2.42 | 5.2 | 17.6 | 2.72 | 1.33 µM | 5.04 | 1.36 µM | 1.49 µM | 0.963 µM | 1.57 µM | 1.06 µM | 1.26 µM | 1.39 µM | 0.99 µM | 0.558 µM | 1.4 µM
O=C1NC2(CCCCC2)C2=C1CCCCC2 | > 100 | > 100 µM | > 100 µM | > 100 | > 100 | > 100 | > 100 | > 100 | > 100 µM | > 100 |  |  |  |  |  |  |  |  |  | 
O=[N+]([O-])C1(CO)COC(CCc2ccccc2)OC1 (stereo not given) | > 100 | > 100 µM | > 100 µM | > 100 | > 100 | > 100 | > 100 | > 100 | > 100 µM | > 100 |  |  |  |  |  |  |  |  |  | 
NC1CC(n2ccc(=O)[nH]c2=O)OC1C(O)CO (stereo not given) | > 100 | > 100 µM | > 100 µM | > 100 | > 100 | > 100 | > 100 | > 100 | > 100 µM | > 100 |  |  |  |  |  |  |  |  |  | 
CC(C)C12CCC3(CCC4C(C)(C(=O)O)CCCC4(C)C3C1)C(CN)C2 (stereo not given) | > 100 | > 100 µM | 47.2 µM | > 100 | 86.2 | 43.3 | 60.1 | 70.3 | 78.9 µM | > 100 |  |  |  |  |  |  |  |  |  | 
CCNc1nc(-c2ccc(Cl)c(OC)c2)c(-c2ccnc(NCCNS(=O)(=O)c3ccc(Cl)cc3)n2)s1 | 7.69 | 6.37 µM | 20.1 µM | 53.6 | 3.23 | > 100 | 7.51 | 4.35 | 6.63 µM | 49.4 | 3.2 µM | 2.51 µM | 2.92 µM | 3.57 µM | 1.56 µM | 3.41 µM | 2.7 µM | 1.92 µM | 2.51 µM | 3.44 µM
CCOC(=O)/C(=C/c1ccc[nH]1)P(=O)(OCC)OCC | > 100 | > 100 µM | > 100 µM | > 100 | > 100 | > 100 | > 100 | > 100 | > 100 µM | > 100 |  |  |  |  |  |  |  |  |  | 
O=C1COc2c(CCNCCN(C(=O)CCNCCc3ccc(Cl)c(Cl)c3)C3CCCCC3)ccc(O)c2N1 | 32.7 | 31 µM | 33.8 µM | 44.8 | 29.4 | 30.3 | 33.7 | 32.3 | 29.7 µM | 33 | 15.3 µM | 16 µM | 16.7 µM | 21.8 µM | 15.6 µM | 14.7 µM | 12.2 µM | 15.2 µM | 15.1 µM | 16.9 µM
CCC(=C(c1ccc(OCCN(CC)CC)cc1)c1ccc(OCCN(CC)CC)cc1)c1ccc(Cl)cc1 | 1.28 | 0.94 µM | 1.15 µM | 1.31 | 1.06 | 1.24 | 0.981 | 1.21 | 1.04 µM | 1.25 | 0.598 µM | 0.484 µM | 0.51 µM | 0.638 µM | 0.593 µM | 0.606 µM | 0.249 µM | 0.564 µM | 0.552 µM | 0.62 µM
CC(=O)Nc1ccc(C(=O)COc2cccc(/C=C3\CCc4ccccc4C3=O)c2)cc1 | 60.3 | 64 µM | > 100 µM | > 100 | 11 | > 100 | 16.7 | 32.8 | 40.2 µM | 39 | 24 µM | 15.5 µM | 18.7 µM | 38.1 µM | 2.9 µM | 27.6 µM | 0.0802 µM | 6.55 µM | 19.2 µM | 15.7 µM
CS(=O)(=O)Nc1ccc(Nc2c3ccccc3nc3cc(Cl)ccc23)cc1 | 18 | 8.96 µM | 14.1 µM | 12.1 | 2.62 | 16.1 | 16 | 15.4 | 13.5 µM | 16.7 | 0.958 µM | 0.58 µM | 2.57 µM | 0.188 µM | 1.13 µM | 0.654 µM | 0.177 µM | 2.33 µM | 1.18 µM | 3.33 µM
Brc1ccc2c(c1)-c1ccccc1C1=NCCN12 | 8.02 | 3.81 µM | 3.33 µM | 3.58 | 3.24 | 13 | 3.83 | 2.75 | 4.38 µM | 4.51 | 0.962 µM | 0.585 µM | 0.478 µM | 0.548 µM | 1.52 µM | 1.13 µM | 0.753 µM | 0.762 µM | 1.63 µM | 1.59 µM
COc1cc2nccc(Oc3ccc(NC(=O)C4(C(=O)Nc5ccc(F)cc5)CC4)cc3)c2cc1OC | > 45.3 | > 10 µM and 12.7 µM | > 10 µM and 20.4 µM | > 61.4 | > 100 | > 54.2 | > 23.7 | > 45.3 | > 10 µM and 12.2 µM | > 74.7 | > 10 µM and 5.6 µM | 4.3 µM and 2.33 µM | 7.71 µM and 2.74 µM | > 10 µM and 3.55 µM | > 10 µM and 4.66 µM | 3.97 µM and 1.02 µM | > 10 µM and 2.21 µM | > 10 µM and 4.28 µM | 1.13 µM and 1.42 µM | > 10 µM and 4.92 µM
COc1cc(/C=C/C(=O)c2c(-c3ccc(Cl)cc3)nc3sc(C)nn23)cc(OC)c1OC | > 100 | > 100 µM | > 100 µM | > 100 | 15.6 | > 100 | > 100 | 8.8 | > 100 µM | > 100 | 10.4 µM | 7.27 µM | 77.7 µM | 49.5 µM | 3.1 µM | 53.9 µM | 4.9 µM | 2.94 µM | > 100 µM | 16 µM
Cc1c(-c2ccc(N3CCc4cccc(C(=O)Nc5nc6ccccc6s5)c4C3)nc2C(=O)O)cnn1CC12CC3CC(CC(C3)C1)C2 | 27.8 | 9.36 µM | 25.3 µM | 25.3 | 9.79 | 29.8 | > 57.4 | 28 | 21.8 µM | 30.2 | 10.1 µM | 2.6 µM | 7.79 µM | 4.97 µM | 2.79 µM | 6.93 µM | 12.8 µM | 10.8 µM | 6.51 µM | 10.5 µM
COc1cc([C@H]2c3cc(O)c(OC)cc3C[C@]3(O)[C@@H]2CO[C@@H]3O)ccc1O | > 100 | > 100 µM | > 100 µM | > 100 | > 100 | > 100 | > 100 | > 100 | > 100 µM | > 100 |  |  |  |  |  |  |  |  |  | 
Cc1cccc(Cc2cnc(NC(=O)CCCOc3ccc(Cl)cc3)s2)c1 | > 100 | > 100 µM | > 100 µM | > 100 | > 100 | > 100 | > 100 | > 100 | > 100 µM | > 100 | 5.57 µM | 4.52 µM | 3.49 µM | 3.94 µM | 3.69 µM | 5.26 µM | 2.51 µM | 51.1 µM | 5.13 µM | 7.41 µM
